Like-named read-outs stand apart in the source and are kept apart here.
Assays:
[1] = tested on: unselected cord blood mononuclear cell population; test: Lymphocyte subsets (FACS) in unselected cord blood mononuclear cell cultures; assay type: cell-based, human; details: three weeks
Method: 1. Total mononuclear cell fraction was cultured in culture bags (American Fluoroseal Co. Gaithersburg, Md., USA), T-Flasks or 24 well plates at a concentration of 0.5−2×10^6 cells/ml in MEMα comprising 10% FCS or CellGro SCGM (Cell Genix) comprising 5-10% Human Serum/LiforCell® FBS Replacement (Lifeblood Products) containing the following human recombinant cytokines:, interleukin-2 (IL-2) (5-50 ng/ml), interleukin-15 (IL-15), interleukin7 (IL7), interleukin 21 (IL21), FLT-3 or SCF or FLT3 and SCF (Perpo Tech, Inc., Rocky Hill, N.J., USA), with or without OKT-3 (10-50 ng/ml), with or without nicotinamide (0.5-10 mM), and incubated at 37° C. in a humidified atmosphere of 5% CO2 in air. When OKT-3 was used in the culture the cultures were centrifuged after 5-7 days and the cells were resuspended with the same medium excluding the OKT-3. All cultures are topped weekly or twice a week with the same volume of fresh medium containing the growth factors with or without nicotinamide. For counting, the cells were stained with trypan blue. At various time points, samples were taken to assay the relative fractions of NK cells, CD56+CD3−, CD56+CD3+, CD34+CD56+, CD56+CD16+ and/or CD56+ NKG2A cells. Cell morphology was determined on cytospin (Shandon, Pittsburgh, Pa., USA) prepared smears stained with May-Grunwald/Giemsa solutions.
The cells were washed with a PBS solution containing 1% BSA, and stained (at 4° C. for 30 min) with fluorescein isothiocyanate (FITC)- or phycoerythrin (PE)-conjugated antibodies or allophycocyanin (APC). The cells were then washed in the above buffer and analyzed using a FACScalibur® flow cytometer (Becton Dickinson, San Jose, Calif., USA). The cells were passed at a rate of up to 1000 cells/second, using a 488 nm or 661 nm argon laser beam as the light source for excitation. Emission of 10^4 cells was measured using logarithmic amplification, and analyzed using the CellQuest software (Becton Dickinson). Cells stained with FITC, PE and APC-conjugated isotype control antibodies were used to determine background fluorescence. […]

[2] = tested on: K562 target cells; assay type: cell-based
Method: (§1) “Killing” assay: NK cells (effectors cells=E) are combined with K562 or BL2 (target cells=T), or bi-phenotypic leukemia cells at different E to T ratio (E:T). BL2 or K562, or bi-phenotypic leukemia target cells in PBS were labeled with 1 ng/ml CFSE (Invitrogen) for 15 min at 37° C. Calf Serum was added to the cells for 15 minutes, the cells were then washed and resuspended in RPMI medium. 100 μL of bi-phenotypic leukemia, BL2 or K562 cells were placed in a 96 round bottom plate at a concentration of 5×10^3 cells per well. 100 μL of non-stained NK cells were added to the bi-phenotypic leukemia, BL2 or K562 cells at a E:T ratio of 1:1, 2.5:1, 5:1, 10:1 or 20:1 (5×10^3, 1.25×10^4, 2.5×10^4, 5×10^4 and 1×10^5 cells/well, respectively, as indicated). Between 2-48 hours later. Killing of target cells in cell lines such as K562 and BL-2 was determined by FACS as a percentage propidium-iodine (PI)-positive (dead) CFSE-labeled cells. Killing of the primary leukemia cells was determined by counting with the FACS the number of CFSE stained cells that remained in the culture after their culture with the NK cells. A lower number of CFSE+ cells is indicative of higher level of killing.

[3] = tested on: human primary bi-phenotypic leukemia cells; assay type: cell-based; details: after 24 hours, NK cells of 2 donors (Donor A and Donor B)
Method: as §1

[4] = tested on: BL2 target cells; assay type: cell-based; details: 2.5 mM or 5.0 mM nicotinamide for 3 weeks; E:T 1:1 to 10:1
Method: as §1

[5] = tested on: K562 target cells; test: Killing assay, NK cells expanded with irradiated feeder cells; assay type: cell-based, human; details: 5:1, 2.5:1 and 1:1 NK cells per target cell
Method: as §1
Peripheral blood-derived mononuclear cell fractions were CD3 depleted and then selected for CD56+ cells by immunobead purification. […]

[6] = tested on: colo205 colorectal adenocarcinoma cell line; assay type: cell-based; details: 5 mM nicotinamide, all E:T ratios tested (1:1 to 10:1)
[7] = 0.5, 1, 2.5 and 5 mM nicotinamide

NC(=O)c1cccnc1 [nicotinamide]
proliferation in culture of CD56+/CD3- NK cells [1, 7]: dose-dependent nicotinamide-induced enhancement of proliferation | proliferation in culture of CD56+/CD45+ cells [1, 7]: dose-dependent nicotinamide-induced enhancement of proliferation | CD3+ CD56- T cell growth ([1]; 0.5 to 5 mM nicotinamide, dose-dependent): inhibition | killing (cytotoxic) potential vs cells cultured in growth factors only ([2]; 2.5 mM or 5.0 mM nicotinamide for 3 weeks, E:T 1:1 to 10:1): far greater | killing (cytotoxic) potential vs cells cultured in growth factors only ([2]; E:T ratios of 1:5, 1:10 and 1:20 NK cells per target): far greater | cytotoxic potential of expanded NK cells [3]: increased activation of NK cells killing potential | killing (cytotoxic) potential vs cells cultured in growth factors only [4]: far greater | ex-vivo killing potential [5]: increased cytotoxic capability | cytotoxic potential towards solid tumor cells [6]: increased killing potential
